Measured values from US20220275387A1, “TRANSCRIPTION FACTOR NtERF221 AND METHODS OF USING THE SAME” (University of Virginia Patent Foundation, priority 2019, published 2022).
“Also recorded” adds a separate entry of the source.

Tests used:
[1] = tested on: Nicotiana tabacum L. var. K326; assay: GC-MS quantification of nicotine in leaf of wild-type and transgenic tobacco; format: in vivo; conditions: five-week-old plants, DMSO or MeJA
Description: (§1) Plant materials and transformation. Tobacco plants (Nicotiana tabacum L. var. K326) were used for all the tests and genetic transformations described herein. Wild-type or transgenic seeds were germinated on Murashige and Skoog (MS) plates. For quantitative RT-PCR, germinated small seedlings were transferred onto larger MS plates and grown vertically until two weeks old before treated with 0.1% DMSO (control) or 100 μM MeJA. For TLC and GC-MS analysis, germinated seedlings were transferred in soil and grown under normal condition till five weeks old before DMSO or MeJA treatment. Agrobacterium tumefaciens strain LBA4404 harboring each transgenic vector was used for genetic transformation of tobacco following the experiment procedure described previously (Horsch et al., 1985). At least eight T0 transgenic plants were confirmed by genomic DNA PCR and then self-pollinated to produce T1 generation. […]
Gas chromatography-mass spectrometry (GC-MS). […] Nicotine concentration was measured on a Shimadzu GCMS QP2010 plus system with a protocol developed previously (Goossens et al., (2003); Zhang et al., (2012)). […]
To further quantify nicotine concentration for the comparison between transgenic lines and the wild-types, GC-MS analysis was applied with total alkaloids extracted from the leaf tissue of five-week-old wild-type or transgenic plants treated with DMSO (control) or MeJA. […]

[2] = tested on: NtAO, NtODC, NtPMT, NtQPT, and NtQS; assay: RT-qPCR of nicotine biosynthesis structural genes in transgenic tobacco seedlings; format: in vivo, Nicotiana tabacum; conditions: two-week-old seedlings, 100 μM MeJA for 8 hours, normalized to NtEF-1α
Description: as §1
RNA isolation and quantitative reverse transcription-PCR (RT-qPCR). […] The DNA-eliminated total RNA was then reverse-transcribed using QuantiTect reverse transcription kit (Qiagen). Quantitative PCR was conducted iTaq™ Universal SYBR® Green supermix (Bio-Rad Laboratories) on an CFX96™ Real-Time PCR detection system (Bio-Rad Laboratories). […]

[3] = tested on: Nicotiana tabacum L. var. K326; assay: TLC assay for nicotine accumulation in leaves of T2 overexpression lines; format: in vivo; conditions: T2 transgenic plants, 5-week-old, constitutive or conditional overexpression
Description: Plant materials and transformation. Tobacco plants (Nicotiana tabacum L. var. K326) were used for all the tests and genetic transformations described herein. Wild-type or transgenic seeds were germinated on Murashige and Skoog (MS) plates. For quantitative RT-PCR, germinated small seedlings were transferred onto larger MS plates and grown vertically until two weeks old before treated with 0.1% DMSO (control) or 100 μM MeJA. For TLC and GC-MS analysis, germinated seedlings were transferred in soil and grown under normal condition till five weeks old before DMSO or MeJA treatment. […]
Each gene was put into three different expression constructs respectively under the control of three different promoters described above (FIG. 3A). […] For each construct, at least eight lines were confirmed to have the transgene stably integrated into the genome by genomic PCR, the intact structure of the transgene was validated and relative level of transgene expression measured by RT-PCR using gene specific primers as is standard practice. The level of nicotine was assessed by TLC analysis to quickly identify the transformants with higher nicotine accumulation than the wild-type. […] T1 lines were similarly self-pollinated and the resulting T2 plants analyzed. […]

NtERF221: AP2/ERF family transcription factor transgene (CQ808982, SEQ ID NO: 1) overexpressed in tobacco K326
nicotine concentration in the leaf, comparison among transgenic lines [1]: highest nicotine concentration
JA-induced transcript accumulation of NtAO, NtODC, NtPMT, NtQPT, and NtQS versus wild-type [2]: far greater; also recorded: greatly up-regulated
nicotine accumulation versus wild-type (TLC) [3]: significantly elevated nicotine accumulation
